Measured values reported in article PMC10538245, “Fragment merging approach for design, synthesis, and biological assessment of urea/acetyl hydrazide clubbed thienopyrimidine derivatives as GSK-3β inhibitors” (BMC Chemistry, 2023).

How the values were obtained:
GSK-3β = GSK-3β (Homo sapiens, UniProt P49841); experiment: GSK-3β kinase inhibition, Z'-LYTE FRET assay (Thermo Fisher SelectScreen); type: biochemical; settings: for inhibition at 100 µM: 100 μM single dose
UO-31 = experiment: NCI 60-cell line one dose antiproliferative assay; type: cell-based; settings: Homo sapiens; UO-31, Renal Cancer, 10 µM one dose; read-out: Percent inhibition (cell growth inhibition %)
From the text: (§1) The National Cancer Institute "NCI", NIH, Bethesda, Maryland, USA (www.dtp.nci.nih.gov) chose six of the final compounds for the Developmental Therapeutic Program (DTP), codes (5a, 5b, 5c, 5d, 6a, 6b). The NCI screening service will favor compounds with drug-like modes of action based on computer-aided design. Selection The criterion for screening is the possibility of the submitted compounds to provide diversity to the NCI small molecule chemical collection. This screen employs 60 different Leukemia, melanoma, and additional tumor cell lines of the human from brain, kidney, lung, ovary, colon, breast, and prostate cancers. All compounds were picked based on their NCI codes. NSC: D-820696/1, NSC: D-820697/1, NSC: D-820698/1, NSC: D-820699/1, NSC: D-820700/1, NSC: D-820701/1. The initial 10 µM one dose percent inhibition assay was performed on the entire NCI 60 cell panel to examine the different chemotypes of this work. The results are presented as a percentage of cell growth on each of the 60 NCI cell line panels for each of the investigated substances in Table 2.
(§2) The NCI cancer screening procedure includes a comparison of all substances to the sixty NCI cell line panel representing leukemia, NSCLC, cell lines from breast cancer, prostate cancer, melanoma, CNS cancer, renal cancer, ovarian cancer, and colon cancer at a single point of 10 uM. The results of the single-dose screen can be presented using a mean graph.

EKVX = experiment: NCI 60-cell line one dose antiproliferative assay; type: cell-based; settings: Homo sapiens, Non-Small Cell Lung Cancer, 10 µM one dose, read-out: Percent inhibition (cell growth inhibition %)
From the text: as §1, §2

K-562 = experiment: NCI 60-cell line one dose antiproliferative assay; type: cell-based; settings: Homo sapiens, K562; K-562, Leukemia, 10 µM one dose; read-out: Percent inhibition (cell growth inhibition %)
From the text: as §1, §2

U251 = experiment: NCI 60-cell line one dose antiproliferative assay; type: cell-based; settings: Homo sapiens, U-251; U251, CNS Cancer, 10 µM one dose; read-out: Percent inhibition (cell growth inhibition %)
From the text: as §1, §2

BT-549 = experiment: NCI 60-cell line one dose antiproliferative assay; type: cell-based; settings: Homo sapiens; BT-549, Breast Cancer, 10 µM one dose; read-out: Percent inhibition (cell growth inhibition %)
From the text: as §1, §2

UACC-62 = experiment: NCI 60-cell line one dose antiproliferative assay; type: cell-based; settings: Homo sapiens; UACC-62, Melanoma, 10 µM one dose; read-out: Percent inhibition (cell growth inhibition %)
From the text: as §1, §2

MDA-MB-231/ATCC = experiment: NCI 60-cell line one dose antiproliferative assay; type: cell-based; settings: Homo sapiens, Breast Cancer, 10 µM one dose, read-out: Percent inhibition (cell growth inhibition %)
From the text: as §1, §2

NCI-H522 = experiment: NCI 60-cell line one dose antiproliferative assay; type: cell-based; settings: Homo sapiens; NCI-H522, Non-Small Cell Lung Cancer, 10 µM one dose; read-out: Percent inhibition (cell growth inhibition %)
From the text: as §1, §2

LOX IMVI = experiment: NCI 60-cell line one dose antiproliferative assay; type: cell-based; settings: Homo sapiens, Melanoma, 10 µM one dose, read-out: Percent inhibition (cell growth inhibition %)
From the text: as §1, §2

HS 578 T = experiment: NCI 60-cell line one dose antiproliferative assay; type: cell-based; settings: Homo sapiens, Breast Cancer, 10 µM one dose, read-out: Percent inhibition (cell growth inhibition %)
From the text: as §1, §2

HCT-116 = experiment: NCI 60-cell line one dose antiproliferative assay; type: cell-based; settings: Homo sapiens; HCT-116, Colon Cancer, 10 µM one dose; read-out: Percent inhibition (cell growth inhibition %)
From the text: as §1, §2

A549/ ATCC = experiment: NCI 60-cell line one dose antiproliferative assay; type: cell-based; settings: Homo sapiens, Non-Small Cell Lung Cancer, 10 µM one dose, read-out: Percent inhibition (cell growth inhibition %)
From the text: as §1, §2

NCI-H23 = experiment: NCI 60-cell line one dose antiproliferative assay; type: cell-based; settings: Homo sapiens; NCI-H23, Non-Small Cell Lung Cancer, 10 µM one dose; read-out: Percent inhibition (cell growth inhibition %)
From the text: as §1, §2

SNB-75 = experiment: NCI 60-cell line one dose antiproliferative assay; type: cell-based; settings: Homo sapiens; SNB-75, CNS Cancer, 10 µM one dose; read-out: Percent inhibition (cell growth inhibition %)
From the text: as §1, §2

MDA-MB-435 = experiment: NCI 60-cell line one dose antiproliferative assay; type: cell-based; settings: Homo sapiens; MDA-MB-435, Melanoma, 10 µM one dose; read-out: Percent inhibition (cell growth inhibition %)
From the text: as §1, §2

SF-539 = experiment: NCI 60-cell line one dose antiproliferative assay; type: cell-based; settings: Homo sapiens; SF-539, CNS Cancer, 10 µM one dose; read-out: Percent inhibition (cell growth inhibition %)
From the text: as §1, §2

SR = experiment: NCI 60-cell line one dose antiproliferative assay; type: cell-based; settings: Homo sapiens, Leukemia, 10 µM one dose, read-out: Percent inhibition (cell growth inhibition %)
From the text: as §1, §2

MCF7 = experiment: NCI 60-cell line one dose antiproliferative assay; type: cell-based; settings: Homo sapiens; MCF7, Breast Cancer, 10 µM one dose; read-out: Percent inhibition (cell growth inhibition %)
From the text: as §1, §2

SF-268 = experiment: NCI 60-cell line one dose antiproliferative assay; type: cell-based; settings: Homo sapiens; SF-268, CNS Cancer, 10 µM one dose; read-out: Percent inhibition (cell growth inhibition %)
From the text: as §1, §2

OVCAR-5 = experiment: NCI 60-cell line one dose antiproliferative assay; type: cell-based; settings: Homo sapiens; OVCAR-5, Ovarian Cancer, 10 µM one dose; read-out: Percent inhibition (cell growth inhibition %)
From the text: as §1, §2

MOLT-4 = experiment: NCI 60-cell line one dose antiproliferative assay; type: cell-based; settings: Homo sapiens; MOLT-4, Leukemia, 10 µM one dose; read-out: Percent inhibition (cell growth inhibition %)
From the text: as §1, §2

786–0 = experiment: NCI 60-cell line one dose antiproliferative assay; type: cell-based; settings: Homo sapiens; 786–0, Renal Cancer, 10 µM one dose; read-out: Percent inhibition (cell growth inhibition %)
From the text: as §1, §2

CAKI-1 = experiment: NCI 60-cell line one dose antiproliferative assay; type: cell-based; settings: Homo sapiens; CAKI-1, Renal Cancer, 10 µM one dose; read-out: Percent inhibition (cell growth inhibition %)
From the text: as §1, §2

IGROV1 = experiment: NCI 60-cell line one dose antiproliferative assay; type: cell-based; settings: Homo sapiens, IGROV-1; IGROV1, Ovarian Cancer, 10 µM one dose; read-out: Percent inhibition (cell growth inhibition %)
From the text: as §1, §2

SN12C = experiment: NCI 60-cell line one dose antiproliferative assay; type: cell-based; settings: Homo sapiens, Renal Cancer, 10 µM one dose, read-out: Percent inhibition (cell growth inhibition %)
From the text: as §1, §2

A498 = experiment: NCI 60-cell line one dose antiproliferative assay; type: cell-based; settings: Homo sapiens; A498, Renal Cancer, 10 µM one dose; read-out: Percent inhibition (cell growth inhibition %)
From the text: as §1, §2

SNB-19 = experiment: NCI 60-cell line one dose antiproliferative assay; type: cell-based; settings: Homo sapiens; SNB-19, CNS Cancer, 10 µM one dose; read-out: Percent inhibition (cell growth inhibition %)
From the text: as §1, §2

NCI-H226 = experiment: NCI 60-cell line one dose antiproliferative assay; type: cell-based; settings: Homo sapiens; NCI-H226, Non-Small Cell Lung Cancer, 10 µM one dose; read-out: Percent inhibition (cell growth inhibition %)
From the text: as §1, §2

SK-MEL-5 = experiment: NCI 60-cell line one dose antiproliferative assay; type: cell-based; settings: Homo sapiens; SK-MEL-5, Melanoma, 10 µM one dose; read-out: Percent inhibition (cell growth inhibition %)
From the text: as §1, §2

SW-620 = experiment: NCI 60-cell line one dose antiproliferative assay; type: cell-based; settings: Homo sapiens; SW-620, Colon Cancer, 10 µM one dose; read-out: Percent inhibition (cell growth inhibition %)
From the text: as §1, §2

T-47D = experiment: NCI 60-cell line one dose antiproliferative assay; type: cell-based; settings: Homo sapiens, T47D, Breast Cancer, 10 µM one dose, read-out: Percent inhibition (cell growth inhibition %)
From the text: as §1, §2

NCI-H322M = experiment: NCI 60-cell line one dose antiproliferative assay; type: cell-based; settings: Homo sapiens, Non-Small Cell Lung Cancer, 10 µM one dose, read-out: Percent inhibition (cell growth inhibition %)
From the text: as §1, §2

MDA-MB-468 = experiment: NCI 60-cell line one dose antiproliferative assay; type: cell-based; settings: Homo sapiens; MDA-MB-468, Breast Cancer, 10 µM one dose; read-out: Percent inhibition (cell growth inhibition %)
From the text: as §1, §2

RXF 393 = experiment: NCI 60-cell line one dose antiproliferative assay; type: cell-based; settings: Homo sapiens; RXF 393, Renal Cancer, 10 µM one dose; read-out: Percent inhibition (cell growth inhibition %)
From the text: as §1, §2

NCI-H460 = experiment: NCI 60-cell line one dose antiproliferative assay; type: cell-based; settings: Homo sapiens; NCI-H460, Non-Small Cell Lung Cancer, 10 µM one dose; read-out: Percent inhibition (cell growth inhibition %)
From the text: as §1, §2

PC-3 = experiment: NCI 60-cell line one dose antiproliferative assay; type: cell-based; settings: Homo sapiens; PC-3, Prostate Cancer, 10 µM one dose; read-out: Percent inhibition (cell growth inhibition %)
From the text: as §1, §2

Sequence of GSK-3β (P49841 whole entry): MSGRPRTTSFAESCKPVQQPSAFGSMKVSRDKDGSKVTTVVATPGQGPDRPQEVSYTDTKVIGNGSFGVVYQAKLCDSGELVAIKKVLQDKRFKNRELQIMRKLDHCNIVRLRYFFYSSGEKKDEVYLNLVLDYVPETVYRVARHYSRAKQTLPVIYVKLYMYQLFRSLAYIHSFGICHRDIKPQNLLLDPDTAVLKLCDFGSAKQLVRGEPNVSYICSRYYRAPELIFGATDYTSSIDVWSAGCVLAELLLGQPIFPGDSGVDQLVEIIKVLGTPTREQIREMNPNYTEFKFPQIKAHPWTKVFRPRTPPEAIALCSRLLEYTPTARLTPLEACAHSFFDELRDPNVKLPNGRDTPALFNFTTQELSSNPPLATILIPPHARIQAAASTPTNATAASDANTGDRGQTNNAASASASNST

| inhibition at 100 µM (GSK-3β) | melting point | SMILES | inhibition at 10 µM (UO-31) | inhibition at 10 µM (UACC-62) | inhibition at 10 µM (NCI-H522) | inhibition at 10 µM (LOX IMVI) | inhibition at 10 µM (HS 578 T) | inhibition at 10 µM (A549/ ATCC) | inhibition at 10 µM (SNB-75) | inhibition at 10 µM (MCF7) | inhibition at 10 µM (SF-268) | inhibition at 10 µM (OVCAR-5) | inhibition at 10 µM (MOLT-4) | inhibition at 10 µM (CAKI-1) | inhibition at 10 µM (IGROV1) | inhibition at 10 µM (A498) | inhibition at 10 µM (SNB-19) | further results |
| --- | --- | --- | --- | --- | --- | --- | --- | --- | --- | --- | --- | --- | --- | --- | --- | --- | --- | --- |
| 43% | 290 to 292 °C | O=C(COc1ncnc2sc3c(c12)CCCC3)NN=Cc1ccc(Br)cc1 [5c, N'-(4-Bromobenzylidene)-2-((5,6,7,8-tetrahydrobenzo[4,5]thieno[2,3-d]pyrimidin-4-yl)oxy)acetohydrazide] | 16.6% | 6.58% | 10.3% | 3.68% | 7.31% | 1.87% | 13.6% | 8.67% | 5.08% | 10% | 9.38% | 16.7% | 2.52% | 21.3% | 5.53% | inhibition at 10 µM (EKVX): 3.66%; inhibition at 10 µM (K-562): 13.5%; inhibition at 10 µM (U251): 6.99%; inhibition at 10 µM (BT-549): 2.58%; inhibition at 10 µM (MDA-MB-231/ATCC): 11.2%; inhibition at 10 µM (HCT-116): 3.24%; inhibition at 10 µM (NCI-H23): 0.25%; inhibition at 10 µM (MDA-MB-435): 0.85%; inhibition at 10 µM (SF-539): 1.02%; inhibition at 10 µM (SR): 8.29%; inhibition at 10 µM (786–0): 5.22%; inhibition at 10 µM (SN12C): 3.09% |
| 50% | 285 °C | CN(C)c1ccc(C=NNC(=O)COc2ncnc3sc4c(c23)CCCC4)cc1 [5d, N'-(4-(Dimethylamino)benzylidene)-2-((5,6,7,8-tetrahydrobenzo [4,5]thieno[2,3-d]pyrimidin-4-yl)oxy) acetohydrazide] | 24% | 5.34% | 4.74% | 2.93% | 5.71% | 1.15% | 18.8% | 7.82% | 1.44% | 8.97% | 0.81% | 5.26% | 14.4% | 48.4% | 3.31% | inhibition at 10 µM (GSK-3β; 10 μM): 5%; inhibition at 10 µM (NCI-H226): 8.81%; inhibition at 10 µM (SK-MEL-5): 0.27%; inhibition at 10 µM (SW-620): 2.39%; inhibition at 10 µM (T-47D): 0.95%; inhibition at 10 µM (NCI-H322M): 3.69%; inhibition at 10 µM (MDA-MB-468): 15.8%; inhibition at 10 µM (RXF 393): 7.97%; inhibition at 10 µM (NCI-H460): 1.04%; inhibition at 10 µM (PC-3): 3.93% |
